Reference: patent US20140128352A1, “COMPOUNDS AND METHODS FOR MODULATING MITOCHONDRIAL METABOLISM AND REACTIVE OXYGEN SPECIES PRODUCTION” (Buck Institute for Research on Aging, priority 2012, published 2014)
“Also recorded” adds a separate entry of the source.

Experiments:
site IQ = assay: Retest of IQ ROS production (expanded microplate panel / cuvette); type: biochemical, rat; conditions: for effect on IQ ROS with subsaturating substrate: subsaturating (0.5 mM) succinate
Protocol: (§1) Compounds identified as site-selective hits as well as structural analogs were re-sourced from ChemBridge and dissolved in DMSO as 80 mM stocks. Master Titration Plates were prepared manually by serially diluting 80 mM compound stocks between 0.08 and 80 mM on 96-well microplates. Four compounds were titrated in duplicate on each plate. Additional DMSO controls were interspersed across these plates to serve as local normalization controls during analysis since two-way median polishing was not appropriate. Just prior to use, compounds were diluted 100-fold with standard buffer (10X). The same known inhibitor positive controls were included on each plate as during high-throughput screening.
(§2) The five core ROS assays and single ΔΨm assay were carried out as in the initial high-throughput screen. In addition, several assays were included to help validate the specificity of the compounds for a given site of production. All compounds were titrated against separate assays targeting IQ ROS and IIIQo ROS using subsaturating (0.5 mM final) succinate. […] Specifically, ΔΨm was monitored separately with 5 mM succinate (in the presence of 4 μM rotenone) in addition to glutamate and malate as before. The use of different substrates was designed to reveal compounds that disrupt mitochondrial function in a substrate specific manner.
Most frequently, these changes involved the use of different substrates to supply electrons from an alternative entry point in the chain. If a site of ROS production is being targeted selectively by a compound, then in many cases the supply of electrons should not influence the effectiveness of this compound at suppressing ROS production. […] Alternative conditions are listed below: • 1) IQ ROS: 5 mM succinate with 1 mM glutamate • 2) IF ROS: 5 mM malate only as substrate (in the presence of 4 μM rotenone) • 3) IIIQo ROS: 5 mM succinate (in the presence of 3 mM malonate, 4 uM rotenone, and 2.5 μM antimycin A) • 4) IIIQo ROS: 25 mM glycerol phosphate (in the presence of 1 mM malonate, 4 μM rotenone, and 2.5 μM antimycin A) • 5) SDH: 0.5 mM succinate (in the presence of 4 uM rotenone, 2.5 uM antimycin A, and 2 μM myxothiazol) • 6) GPDH: Vary the concentration of glycerol phosphate in the presence or absence of 250 nM free calcium to allosterically activate GPDH (all in the presence of 4 μM rotenone, 2.5 uM antimycin A, 1 mM malonate, and 2 μM myxothiazol) • 7) ΔΨm: Vary the concentration of glycerol phosphate in the presence or absence of 250 nM free calcium to allosterically activate GPDH and in the presence or absence of 80 ng/mL nigericin (all in the presence of 4 μM rotenone)
The fluorescence values in each well were scaled in relation to the intra-plate DMSO and known inhibitor controls as in the high-throughput screen except that median values for local interspersed DMSO wells (3-6 wells) were used rather than just the 8 DMSO wells in columns 1 and 12. This normalization was applied in place of the two-way median polish used during high-throughput screening to minimize row and column effects. […] At this stage, strong candidates were not necessarily excluded from further testing if subtle off-target effects were observed (e.g. loss of specificity or signs of general inhibition at the highest concentrations). Rather, these candidates were often pursued for more detailed mechanistic studies with the expectation that subsequent structure activity analysis would provide insight into which structurally related compounds would provide the optimal specificity for a given site of production.
Candidate compounds that remained site-selective following robotics assisted retesting were subsequently tested for effects on ROS production and ΔΨm with a Varian Cary Eclipse fluorimeter (excitation 550 nm, emission at 590 nm). This experimental format allows kinetic measurements of ROS production and ΔΨm with more accurate temperature control, sample stirring, and background correction. […]

GPDH = target: T1, GPDH (Rattus norvegicus, UniProt P35571); assay: Retest of GPDH ROS production (expanded microplate panel / cuvette); type: biochemical; conditions: microplate or cuvette
T1 construct: from tissue; host or cells: rat skeletal muscle mitochondria (Wistar, Harlan Laboratories)
T1 sequence (P35571 43-727): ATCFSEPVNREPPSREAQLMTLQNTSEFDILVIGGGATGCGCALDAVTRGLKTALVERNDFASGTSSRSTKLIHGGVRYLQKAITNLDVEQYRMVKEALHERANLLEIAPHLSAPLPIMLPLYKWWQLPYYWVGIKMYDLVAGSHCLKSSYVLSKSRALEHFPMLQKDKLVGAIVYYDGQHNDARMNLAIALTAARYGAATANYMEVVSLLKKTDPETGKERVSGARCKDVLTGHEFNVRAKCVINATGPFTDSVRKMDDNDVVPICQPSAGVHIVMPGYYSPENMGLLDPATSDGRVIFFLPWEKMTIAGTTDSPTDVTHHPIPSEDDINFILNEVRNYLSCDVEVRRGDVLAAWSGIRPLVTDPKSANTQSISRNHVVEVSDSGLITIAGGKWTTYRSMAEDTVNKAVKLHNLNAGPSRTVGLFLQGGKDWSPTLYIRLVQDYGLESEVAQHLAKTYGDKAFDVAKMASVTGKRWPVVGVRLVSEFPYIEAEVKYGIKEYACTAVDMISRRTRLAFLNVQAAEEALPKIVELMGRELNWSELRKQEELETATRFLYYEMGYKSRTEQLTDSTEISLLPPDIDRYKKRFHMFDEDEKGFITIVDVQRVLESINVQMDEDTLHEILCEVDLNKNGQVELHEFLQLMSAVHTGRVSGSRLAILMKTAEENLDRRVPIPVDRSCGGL
Protocol: as §1, §2
Most frequently, these changes involved the use of different substrates to supply electrons from an alternative entry point in the chain. If a site of ROS production is being targeted selectively by a compound, then in many cases the supply of electrons should not influence the effectiveness of this compound at suppressing ROS production. […]
The fluorescence values in each well were scaled in relation to the intra-plate DMSO and known inhibitor controls as in the high-throughput screen except that median values for local interspersed DMSO wells (3-6 wells) were used rather than just the 8 DMSO wells in columns 1 and 12. […]

[1] = tested on: mitochondrial respiration; assay: Mitochondrial respiration, Seahorse XF24; type: biochemical, rat; conditions: complex I, complex II or glycerol phosphate substrates; states 2, 3, 4
Protocol: Measurements of ΔΨm described in the previous examples were made under “resting” conditions in which substrates were present but ΔΨm was not coupled to ATP (energy) production by mitochondria. To test the effect of candidate compounds on mitochondrial bioenergetics under energy producing conditions, respiratory coupling parameters were measured in isolated mitochondria in microplate format using a Seahorse XF 24 analyzer (Rogers, G. et al. (2011) High Throughput Microplate Respiratory Measurements Using Minimal Quantities of Isolated Mitochondria. PLoS One. 6(7): e21746). […] ATP synthesis was terminated by injection of oligomycin (0.5 μg/mL) and leak-dependent respiration was measured (state 4o). Finally, the complex III inhibitors antimycin A (2.5 uM) and myxothiazol (2 μM) were injected to terminate respiration. Respiratory profiles were evaluated for signs of inhibition (decreased states 2, 3, or 4o) or uncoupling (increased states 2 or 4o) by candidate compounds. Seahorse XF experiments were performed in a mannitol-sucrose based buffer as described in Rogers et al. 2011. For respiration experiments driven by glycerol phosphate, this buffer was supplemented with CaCl2 to a final free concentration of 250 nM.

complex I = assay: Rate of NAD(P)H reduction via complex I versus observed ROS production; type: biochemical, rat; conditions: 2.5 uM; succinate with low glutamate; FIG. 2B
Protocol: To compare candidate IQ ROS inhibitors with mitochondrial inhibitors known to disrupt complex I activity (e.g. rotenone) or oxidize the electron transport chain (e.g. the uncoupler FCCP), the rate of NAD(P)H reduction via complex I was measured when isolated mitochondria were provided with saturating concentrations of the complex II substrate succinate (5 mM) and subsaturating levels of glutamate (1 mM) to facilitate full activation of complex II by oxaloacetate removal. […] These conditions allow electron and proton fluxes through complex Ito reverse and be directed predominantly toward the matrix. Addition of succinate causes a rapid increase in the reduction state of the matrix NAD(P)H pool that can be monitored as described above. The rate of NAD(P)H reduction is therefore a measure of electron flux through complex I for which direct comparisons can be made under identical conditions to effects on rates of ROS production.

COc1cc(CN(CCN(C)C)Cc2ccccc2)cc(OC)c1 [Compound 31]
effect on IQ ROS with subsaturating substrate (site IQ; retest): stronger off-target effects on IQ ROS when driven by low concentration succinate

O=C(O)CCC(=O)Nc1ccc(-c2nc3cc4ccccc4cc3[nH]2)cc1 [Compound 61]
effect on GPDH ROS on retesting (GPDH): more potent inhibitor of GPDH-specific ROS, ΔΨm, and respiration

O=C(O)CSc1cccc(C(=O)Nc2ccc(Br)cc2)c1 [Compound 47]
effect on GPDH ROS on retesting (GPDH): progressively inhibited GPDH ROS

O=C(O)C1CCCCC1C(=O)NC1CCCCC1 (stereo not shown) [Compound 19]
effect on IQ ROS with saturating substrate (site IQ; retest, saturating substrate): unaffected until the highest concentration tested (80 μM)
effect on IQ ROS with subsaturating substrate (site IQ; retest): minimal effects on IQ ROS production driven with subsaturating substrate until 25 μM
effect on mitochondrial respiration [1]: inhibits ADP-stimulated respiration with complex I substrates; also recorded: no signs of uncoupling but did reveal a progressive inhibition of state 3 respiration (ATP producing) only with CI substrates

CC1=CC(C)(C)N(Cc2ccc([N+](=O)[O-])cc2)c2ccccc21 [Compound 37]
effect on IQ ROS with subsaturating substrate (site IQ; retest): decreased IQ ROS with low substrate; also recorded: lowers site IQ ROS with subsaturating succinate
effect on mitochondrial respiration [1]: did not uncouple state 2 respiration; also recorded: does not show signs of uncoupling state 2 respiration at high concentrations

O=[N+]([O-])c1ccc(Oc2ccc(S(=O)(=O)NC3CCCCC3)cc2)cc1 [Compound 4]
effects on other major sites of ROS production (site IQ; 2.5 uM): without discernible effects on any other major sites within mitochondria
effect on mitochondrial respiration [1]: did not significantly inhibit or show signs of uncoupling respiration under any conditions except at 80 uM; also recorded: does not inhibit forward electron flow through CI
suppression of observed ROS before any sign of altered flux through CI to NADH (complex I): at least 45%

Cc1ccc(C)c(CN(CCCN(C)C)CCCN(C)C)c1 [Compound 32]
effect on mitochondrial respiration [1]: increases ADP-stimulated respiration specifically with complex I substrates; also recorded: significantly increased state 3 respiration specifically with CI substrates

COc1ccc(Cl)cc1N(Cc1ccccc1)Cc1ccccc1 [Compound 34]
effect on IQ ROS with subsaturating substrate (site IQ; retest): consistently increased IQ ROS but only with subsaturating substrate
